{
  "source": "patent EP0454060B1",
  "about": "“3-(Mercaptoalkyl)-quinazoline-2,4(1H,3H)-diones, processes for their preparation, and pharmaceutical compositions” (priority 1990, dated 1991)",
  "key": {"[1]": {"system": "Vaccinia Lister", "assay_type": "cell-based, Vaccinia-Virus", "conditions": "Beispielreihe 5b, Hühnerembryonalfibroblasten, Vaccinia Lister"}, "[2]": {"system": "Influenza A/WSN", "assay": "One-step replication cycle on chick embryo cells", "assay_type": "cell-based, Influenza-Virus", "conditions": "Beispielreihe 5b, Hühnerembryonalfibroblasten, Influenza A/WSN"}, "[3]": {"system": "Herpes simplex Typ 1 Kupka", "assay": "One-step replication cycle on permanent human kidney cell line", "conditions": "Beispielreihe 5a"}, "[4]": {"system": "Influenza A/WSN", "assay": "One-step replication cycle on permanent human kidney cell line"}, "[5]": {"system": "Vaccinia Lister", "assay": "One-step replication cycle on permanent human kidney cell line"}, "[6]": {"conditions": "Herpes simplex Typ 1, 125 µmol/l"}, "[7]": {"conditions": "Herpes simplex Typ 1, 250 µmol/l"}},
  "note": "Read-outs that look alike come from different tables or passages of the source.",
  "data": [
    {"smiles": "COc1cc2[nH]c(=O)n(CCCS)c(=O)c2cc1OC", "note": "[Beispiel 2, 3-(3-Mercaptoprop-1-yl)-6,7-dimethoxychinazolin-2,4(1H,3H)-dion]", "values": [
      {"measurement": "% Hemmung", "setting": "[1]; 125 µmol/l", "value": "> 99,99%"},
      {"measurement": "Senkung des Virusertrages im Vergleich zur unbehandelten Kontrolle", "setting": "[1]; 125 µmol/l", "value": "5,0 log10 TCID50/02 ml"},
      {"measurement": "% Hemmung", "setting": "[1]; 250 µmol/l", "value": "> 99,99%"},
      {"measurement": "Senkung des Virusertrages im Vergleich zur unbehandelten Kontrolle", "setting": "[1]; 250 µmol/l", "value": "5,0 log10 TCID50/02 ml"},
      {"measurement": "Senkung des Virusertrages im Vergleich zur unbehandelten Kontrolle", "setting": "[1]; 31,25 µmol/l", "value": "3,0 log10 TCID50/02 ml"},
      {"measurement": "% Hemmung", "setting": "[1]; 31,25 µmol/l, 31.25 µM", "value": "99,9%"},
      {"measurement": "Senkung des Virusertrages im Vergleich zur unbehandelten Kontrolle", "setting": "[1]; 62,5 µmol/l", "value": "3,5 log10 TCID50/02 ml"},
      {"measurement": "% Hemmung", "setting": "[1]; 62,5 µmol/l, 62.5 µM", "value": "99,93%"},
      {"measurement": "% Hemmung", "setting": "[2]; 125 µmol/l", "value": "> 99,99%"},
      {"measurement": "Senkung des Virusertrages im Vergleich zur unbehandelten Kontrolle", "setting": "[2]; 125 µmol/l", "value": "5,0 log10 TCID50/02 ml"},
      {"measurement": "% Hemmung", "setting": "[2]; 250 µmol/l", "value": "> 99,99%"},
      {"measurement": "Senkung des Virusertrages im Vergleich zur unbehandelten Kontrolle", "setting": "[2]; 250 µmol/l", "value": "5,0 log10 TCID50/02 ml"},
      {"measurement": "Senkung des Virusertrages im Vergleich zur unbehandelten Kontrolle", "setting": "[2]; 62,5 µmol/l", "value": "2,0 log10 TCID50/02 ml"},
      {"measurement": "% Hemmung", "setting": "[2]; 62,5 µmol/l, 62.5 µM", "value": "99,0%"},
      {"measurement": "% Hemmung", "setting": "[3]; [6]", "value": "> 99,99%"},
      {"measurement": "Senkung des Virusertrages im Vergleich zur unbehandelten Kontrolle", "setting": "[3]; [6]", "value": "6,5 log10 TCID50/0,2 ml"},
      {"measurement": "% Hemmung", "setting": "[3]; [7]", "value": "> 99,99%"},
      {"measurement": "Senkung des Virusertrages im Vergleich zur unbehandelten Kontrolle", "setting": "[3]; [7]", "value": "6,5 log10 TCID50/0,2 ml"},
      {"measurement": "Senkung des Virusertrages im Vergleich zur unbehandelten Kontrolle", "setting": "[3]; Herpes simplex Typ 1, 31,25 µmol/l", "value": "3,67 log10 TCID50/0,2 ml"},
      {"measurement": "% Hemmung", "setting": "[3]; Herpes simplex Typ 1, 31,25 µmol/l, 31.25 µM", "value": "99,97%"},
      {"measurement": "Senkung des Virusertrages im Vergleich zur unbehandelten Kontrolle", "setting": "[3]; Herpes simplex Typ 1, 62,5 µmol/l", "value": "5,0 log10 TCID50/0,2 ml"},
      {"measurement": "% Hemmung", "setting": "[3]; Herpes simplex Typ 1, 62,5 µmol/l, 62.5 µM", "value": "> 99,99%"},
      {"measurement": "% Hemmung", "setting": "[4]; Beispielreihe 5a, 125 µmol/l", "value": "99,0%"},
      {"measurement": "Senkung des Virusertrages im Vergleich zur unbehandelten Kontrolle", "setting": "[4]; Beispielreihe 5a, 125 µmol/l", "value": "2,0 log10 TCID50/0,2 ml"},
      {"measurement": "% Hemmung", "setting": "[4]; Beispielreihe 5a, 250 µmol/l", "value": "99,99%"},
      {"measurement": "Senkung des Virusertrages im Vergleich zur unbehandelten Kontrolle", "setting": "[4]; Beispielreihe 5a, 250 µmol/l", "value": "6,17 log10 TCID50/0,2 ml"},
      {"measurement": "Senkung des Virusertrages im Vergleich zur unbehandelten Kontrolle", "setting": "[4]; Beispielreihe 5a, 31,25 µmol/l", "value": "0 log10 TCID50/0,2 ml"},
      {"measurement": "Senkung des Virusertrages im Vergleich zur unbehandelten Kontrolle", "setting": "[4]; Beispielreihe 5a, 62,5 µmol/l", "value": "0,5 log10 TCID50/0,2 ml"},
      {"measurement": "% Hemmung", "setting": "[4]; Beispielreihe 5a, 62,5 µmol/l, n. s. = nicht signifikant", "value": "n. s."},
      {"measurement": "% Hemmung", "setting": "[5]; Beispielreihe 5a, 125 µmol/l", "value": "> 99,99%"},
      {"measurement": "Senkung des Virusertrages im Vergleich zur unbehandelten Kontrolle", "setting": "[5]; Beispielreihe 5a, 125 µmol/l", "value": "5,0 log10 TCID50/0,2 ml"},
      {"measurement": "% Hemmung", "setting": "[5]; Beispielreihe 5a, 250 µmol/l", "value": "> 99,99%"},
      {"measurement": "Senkung des Virusertrages im Vergleich zur unbehandelten Kontrolle", "setting": "[5]; Beispielreihe 5a, 250 µmol/l", "value": "5,0 log10 TCID50/0,2 ml"},
      {"measurement": "Senkung des Virusertrages im Vergleich zur unbehandelten Kontrolle", "setting": "[5]; Beispielreihe 5a, 31,25 µmol/l", "value": "2,84 log10 TCID50/0,2 ml"},
      {"measurement": "% Hemmung", "setting": "[5]; Beispielreihe 5a, 31,25 µmol/l, 31.25 µM", "value": "99,84%"},
      {"measurement": "Senkung des Virusertrages im Vergleich zur unbehandelten Kontrolle", "setting": "[5]; Beispielreihe 5a, 62,5 µmol/l", "value": "5,0 log10 TCID50/0,2 ml"},
      {"measurement": "% Hemmung", "setting": "[5]; Beispielreihe 5a, 62,5 µmol/l, 62.5 µM", "value": "> 99,99%"}
    ]}
  ]
}
